Results taken from patent US20080191164A1, “Method For the Treatment of a Material Other Than the Human Body” (priority 2005, published 2008).

Legend:
[1] = Biodegradability (general properties table)
[2] = Flammability / flashpoint of the compositions; assay type: physicochemical; set-up: key to FLA = flammability: − = no; +/° C. = yes/flashpoint
[3] = Rinsability with water; assay type: physicochemical; set-up: key: 0 = poor; + = good; ++ = excellent
[4] = compulsory labelings; cited from earlier work
[5] = Volatility / aptitude for drying; assay type: physicochemical; set-up: key: 0 = low; + = moderate; ++ = high
[6] = tested on: man; conditions: cited from earlier work; for toxicity for man: compulsory labelings T, Xn, R40, R45 and/or R65
[7] = background statement; cited from earlier work
[8] = tested on: aquatic organisms, such as bacteria, freshwater algae, daphnia and freshwater fish; assay: Toxicity for aquatic organisms
[9] = advantages hitherto described; cited from earlier work
[10] = Risks of harmfulness, protection of the aquatic environment/bioaccumulation; set-up: key: − = harmfulness demonstrated; + = slight risk; ++ = very slight risks
Description: For each of Compositions A to E, the characteristics of odor (“ODOR”), of stability at alkaline pH, i.e. at a pH of 9 (“STAB.”) and of risks of harmfulness in terms of protection of the aquatic environment/bioaccumulation (“BIO.”) are taken up in the table below according to the following notation: […]

[11] = Ready biodegradability, OECD No. 301 A (DOC Die-away Test); conditions: at 28 days
[12] = Rate of evaporation with respect to n-butyl acetate; assay type: physicochemical; conditions: 20° C.

Structure (SMILES) | BIO = biodegradability [1] | FLA = flammability [2] | RIN = rinsability with water [3] | toxicity for the environment [4] | VOL = volatility/aptitude for drying [5] | toxicity for man [6] | FLA: flashpoint [2] [°C] | flashpoint [7] [°C] | toxicity for aquatic organisms [8] | miscibility with water [9] | BIO. (risks of harmfulness, aquatic environment/bioaccumulation) [10] | ready biodegradability (OECD No. 301 A) [11] [%] | rate of evaporation with respect to n-butyl acetate [12] | irritant nature and toxicity to man ([6]; advantages hitherto described)
ClCCl [Composition 2, dichloromethane] | − | − | 0 | compulsory labelings R51/R53 | ++ | a certain toxicity for man |  |  |  |  |  |  |  | 
CCOC(=O)C(C)O (stereo not shown) [Composition 4, ethyl lactate] |  | + | + |  | + |  | 46 | 46 |  |  |  |  |  | 
C=C(C)[C@H]1CC=C(C)CC1 [Composition 3, dipentene] | + | + | 0 |  | ++ |  | 48 |  |  |  |  |  |  | 
CO[C@H]1CO[C@H]2[C@@H]1OC[C@H]2OC [Composition 5, dimethyl isosorbide] | + | + | ++ |  | 0 |  | 120 |  | absence of toxicity | in all proportions | ++ | ~25 | less than 0.005 | absence of irritant nature and of toxicity to man
ClC=C(Cl)Cl [Composition 1, trichloroethylene] | − | − | 0 | compulsory labelings R51/R53 | ++ | a certain toxicity for man |  |  |  |  |  |  |  | 
C=C(C)[C@H]1CC=C(C)CC1 [d-limonene] |  |  |  |  |  |  |  | 48 |  |  |  |  |  | 
